Assay results from ChEMBL document CHEMBL1201862, “PubChem BioAssay data set” (2004).
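Cells were grown in 96-well plates and exposed to each compound for 48 hours at five concentrations; endpoints were interpolated linearly between bracketing concentrations, or set to the highest concentration if not reached. The concentration for 50% growth inhibition is given as GI50.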 The source made the active and inactive calls. Rule as the data show it: active = GI50 up to about 1.1 µM and inactive = higher.

Key:
Experiment in all cases: NCI tumour cell line growth inhibition, 48 h
A498 = test system: A498
ACHN = test system: ACHN
COLO 205 = test system: COLO 205
HCT-116 = test system: HCT-116
IGROV-1 = test system: IGROV-1
KM12 = test system: KM12
M14 = test system: M14
MOLT-4 = test system: MOLT-4
Malme-3M = test system: Malme-3M
NCI-H23 = test system: NCI-H23
RXF 393 = test system: RXF 393
SF-539 = test system: SF-539
SK-MEL-2 = test system: SK-MEL-2
SN12C = test system: SN12C
SNB-19 = test system: SNB-19
SW-620 = test system: SW-620
LOX IMVI = test system: LOX IMVI

Measured: GI50

NC1CCCCC1.O=C(O)C1(P(=O)(O)O)CC1
inactive: A498 > 100 µM | ACHN > 100 µM | COLO 205 > 100 µM | HCT-116 > 100 µM | IGROV-1 > 100 µM | KM12 > 100 µM | M14 25.5 µM | MOLT-4 > 100 µM | Malme-3M > 100 µM | NCI-H23 > 100 µM | RXF 393 > 100 µM | SF-539 > 100 µM | SK-MEL-2 > 100 µM | SN12C > 100 µM | SNB-19 > 100 µM | SW-620 > 100 µM

O=S(=O)(N/N=C/c1cccc(/C=N/NS(=O)(=O)c2ccccc2)c1)c1ccccc1
inactive: A498 > 100 µM | ACHN 68.7 µM | COLO 205 38.3 µM | HCT-116 83.9 µM | IGROV-1 69.2 µM | KM12 58.6 µM | LOX IMVI 30 µM | M14 > 100 µM | MOLT-4 84.5 µM | Malme-3M > 100 µM | NCI-H23 87.1 µM | RXF 393 51.6 µM | SF-539 > 100 µM | SK-MEL-2 > 100 µM | SN12C > 100 µM

CC(C)OC(=O)c1cccnc1/C=N/O
inactive: A498 > 100 µM | ACHN > 100 µM | COLO 205 > 100 µM | HCT-116 > 100 µM | IGROV-1 > 100 µM | KM12 > 100 µM | LOX IMVI > 100 µM | M14 > 100 µM | MOLT-4 > 100 µM | Malme-3M > 100 µM | NCI-H23 > 100 µM | SF-539 > 100 µM | SK-MEL-2 > 100 µM | SN12C > 100 µM | SNB-19 > 100 µM | SW-620 > 100 µM

CCOC(=O)/C=C1\CCCC12OCCO2
inactive: A498 > 100 µM | ACHN > 100 µM | COLO 205 > 100 µM | HCT-116 54.1 µM | IGROV-1 > 100 µM | KM12 > 100 µM | M14 > 100 µM | MOLT-4 30.5 µM | Malme-3M > 100 µM | RXF 393 > 100 µM | SF-539 > 100 µM | SK-MEL-2 > 100 µM | SN12C > 100 µM | SNB-19 > 100 µM | SW-620 > 100 µM

N#C/C(=C1\SC(C(N)=O)=C(N)N1c1ccccc1)c1nc2ccccc2[nH]1
inactive: A498 42.6 µM | ACHN > 100 µM | COLO 205 59 µM | HCT-116 > 100 µM | IGROV-1 37.3 µM | LOX IMVI 32.2 µM | M14 > 100 µM | MOLT-4 > 100 µM | Malme-3M > 100 µM | NCI-H23 > 100 µM | SF-539 75.9 µM | SK-MEL-2 > 100 µM | SN12C > 100 µM | SNB-19 > 100 µM | SW-620 > 100 µM

O=c1c(C(c2ccc([N+](=O)[O-])cc2)c2c(O)c3ccccc3n(-c3ccccc3)c2=O)c(O)c2ccccc2n1-c1ccccc1
inactive: ACHN 13.9 µM | COLO 205 23.2 µM | HCT-116 18.7 µM | IGROV-1 6.56 µM | KM12 17.7 µM | LOX IMVI 11.8 µM | MOLT-4 2.7 µM | Malme-3M 13 µM | NCI-H23 11.2 µM | RXF 393 14.4 µM | SF-539 12.6 µM | SK-MEL-2 14.5 µM | SN12C 11.7 µM | SNB-19 7.28 µM | SW-620 18.4 µM

NC(=O)C(=O)C1C(=O)N(c2ccccc2)N=C1N (stereo not given)
inactive: ACHN 49.4 µM | COLO 205 > 100 µM | HCT-116 > 100 µM | IGROV-1 > 100 µM | KM12 > 100 µM | LOX IMVI > 100 µM | M14 > 100 µM | MOLT-4 > 100 µM | Malme-3M > 100 µM | NCI-H23 > 100 µM | SF-539 > 100 µM | SK-MEL-2 > 100 µM | SN12C > 100 µM | SNB-19 > 100 µM | SW-620 > 100 µM

CC(C)C(C(=O)O)N(CC1(O)OCC(O)C(O)C1O)N=O (stereo not given)
inactive: A498 > 100 µM | ACHN > 100 µM | COLO 205 > 100 µM | HCT-116 > 100 µM | IGROV-1 > 100 µM | KM12 > 100 µM | LOX IMVI > 100 µM | M14 > 100 µM | MOLT-4 > 100 µM | Malme-3M > 100 µM | NCI-H23 > 100 µM | RXF 393 > 100 µM | SF-539 > 100 µM | SK-MEL-2 > 100 µM | SW-620 > 100 µM

O=C(CC(=O)c1cccc2ccccc12)C(=O)Nc1nccs1
inactive: A498 > 100 µM | ACHN > 100 µM | COLO 205 > 100 µM | HCT-116 > 100 µM | IGROV-1 > 100 µM | KM12 > 100 µM | LOX IMVI > 100 µM | M14 > 100 µM | MOLT-4 > 100 µM | Malme-3M > 100 µM | NCI-H23 > 100 µM | RXF 393 > 100 µM | SF-539 > 100 µM | SK-MEL-2 > 100 µM | SN12C > 100 µM | SW-620 > 100 µM

Clc1ccc2c(c1)-c1c3c(nn1-c1ccccc1)-c1ccccc1SC3O2 (stereo not given)
inactive: A498 > 100 µM | ACHN > 100 µM | COLO 205 > 100 µM | HCT-116 > 100 µM | IGROV-1 > 100 µM | KM12 > 100 µM | LOX IMVI 71.3 µM | MOLT-4 > 100 µM | Malme-3M > 100 µM | NCI-H23 > 100 µM | RXF 393 > 100 µM | SF-539 > 100 µM | SK-MEL-2 > 100 µM | SW-620 > 100 µM

NC1CCC2(O)c3ccccc3C2C1 (stereo not given)
inactive: ACHN > 100 µM | COLO 205 > 100 µM | HCT-116 > 100 µM | KM12 > 100 µM | LOX IMVI > 100 µM | M14 > 100 µM | MOLT-4 > 100 µM | Malme-3M > 100 µM | NCI-H23 > 100 µM | RXF 393 > 100 µM | SK-MEL-2 > 100 µM | SN12C > 100 µM | SNB-19 > 100 µM | SW-620 > 100 µM

Cc1ccc(/N=N/c2c(C)nn(-c3ccccc3)c2-c2ccccc2)c(Br)c1
inactive: A498 > 100 µM | ACHN 53.8 µM | HCT-116 12.6 µM | IGROV-1 > 100 µM | KM12 > 100 µM | LOX IMVI 37.2 µM | M14 > 100 µM | MOLT-4 8.15 µM | Malme-3M > 100 µM | SF-539 20.2 µM | SK-MEL-2 > 100 µM | SN12C > 100 µM | SNB-19 > 100 µM | SW-620 63.5 µM

CC1C=CC(C)C2(O)C(=O)NC(O)C12 (stereo not given)
inactive: A498 > 100 µM | ACHN > 100 µM | COLO 205 > 100 µM | HCT-116 > 100 µM | IGROV-1 > 100 µM | KM12 > 100 µM | M14 > 100 µM | MOLT-4 > 100 µM | Malme-3M > 100 µM | RXF 393 > 100 µM | SF-539 > 100 µM | SK-MEL-2 > 100 µM | SN12C > 100 µM | SNB-19 > 100 µM | SW-620 > 100 µM
